≈ marks a conversion by molar mass, not a printed value. Where “and” joins values, the source holds several entries; their conditions need not be identical. Equal values may be shown once. Read-outs that look alike come from different tables or passages of the source.
Key:
[1] = system: intracellular Mtb growth in macrophages (THP-1 cells); assay: Intracellular assay of Mtb clearance in THP-1 cells; format: cell-based, Mycobacterium tuberculosis; conditions: Mtb in THP-1 cells
[2] = format: in vitro ADME
[3] = system: Mtb strain H37Rv; format: cell-based, Mycobacterium tuberculosis
[4] = biological target: T1, Mtb DHFR (Mycobacterium tuberculosis, UniProt P9WNX1); format: biochemical; conditions: read-out: Enzyme IC50 Mtb; purified Mtb DHFR
T1 sequence (P9WNX1 whole entry): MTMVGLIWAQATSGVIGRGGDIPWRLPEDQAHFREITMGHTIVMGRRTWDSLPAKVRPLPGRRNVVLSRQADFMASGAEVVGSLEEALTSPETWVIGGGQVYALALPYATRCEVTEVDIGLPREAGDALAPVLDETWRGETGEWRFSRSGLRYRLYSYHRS

[5] = system: HepG2
[6] = system: Mtb strain H37Rv; conditions: cited from earlier work; for activity against live Mtb: result in words; for MIC90 wt: wild-type Mtb, ref Nixon et al.[15]
[7] = biological target: T1, Mtb DHFR; conditions: cited from earlier work; for inhibition of the Mtb DHFR enzyme: result in words
[8] = biological target: T2, human DHFR (Homo sapiens, UniProt P00374); assay: Biochemical assay of human DHFR; conditions: read-out: Enzyme IC50 Human; recombinant human DHFR
T2 sequence (P00374 1-187): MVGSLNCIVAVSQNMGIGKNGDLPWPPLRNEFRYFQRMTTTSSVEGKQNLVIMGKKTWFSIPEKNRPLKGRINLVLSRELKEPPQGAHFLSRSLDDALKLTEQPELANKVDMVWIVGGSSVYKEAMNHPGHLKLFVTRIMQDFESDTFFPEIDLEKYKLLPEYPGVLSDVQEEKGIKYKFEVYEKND

[9] = system: HepG2 human hepatocytes
[10] = in vivo; cited from earlier work

SMILES | in vitro clearance in mouse microsomes [2] | MIC90 wt [3] | Tox50 HepG2 [5] | activity against live Mtb [6] | inhibition of the Mtb DHFR enzyme [7] | other results
N#Cc1ccc(Cn2ccc3c4c(N)nc(N)nc4ccc32)cc1 [PQD-1] | <0.5 mg/mL·g | 0.5 µM and 0.50 µM | 10 µM | – | – | intracell MIC90 [1]: 0.7 µM; IC50 [4]: 10.1 nM
COc1cc(NCc2ccc3nc(N)nc(N)c3c2C)cc(OC)c1OC [Trimetrexate] | – | – | – | poor or no activity | strong inhibition | MIC90 wt [6]: 6.3 µM (≈ 2.33 µg/mL); MIC90 wt ([6]; listed as trimetrexate): 6.25 µM (≈ 2.31 µg/mL)
CCc1nc(N)nc(N)c1-c1ccc(Cl)cc1 [pyrimethamine] | – | – | – | poor or no activity | strong inhibition | –
CC1(C)N=C(N)N=C(N)N1OCCCOc1cc(Cl)c(Cl)cc1Cl [WR99210] | <0.5 mg/mL·g | 1 to 2 µM | 40 µM | – | – | IC50 [8]: 9 nM; IC50 ([7]; read-out: Enzyme IC50 Mtb, ref Nixon et al.[15]): 14 nM; cell health: membrane permeability [9]: 19 µM; cell health: mitochondrial potential [9]: 25 µM; cell health: nuclear morphology [9]: 10 µM; toxicity in humans [10]: acute gastrointestinal toxicity
CN(Cc1cnc2nc(N)nc(N)c2n1)c1ccc(C(=O)N[C@@H](CCC(=O)O)C(=O)O)cc1 [methotrexate] | – | – | – | poor or no activity | – | –

Reference: article PMC4707675 (ACS infectious diseases, 2015)
